# Reference: PubChem BioAssay AID608 (Sanford-Burnham Center for Chemical Genomics, 2007)
# Activity calls are given as the source filed them. The rule behind the calls is not given here.
# Target: Peptidyl-prolyl cis-trans isomerase FKBP1A (Homo sapiens) (UniProt P62942)
# Test: small-molecule binding to FKBP12 – biophysical, NMR detection (AID 608)
# Conditions: purified FKBP12
# Peptidyl-prolyl cis-trans isomerase FKBP1A (Homo sapiens), sequence (P62942 whole entry, looked up): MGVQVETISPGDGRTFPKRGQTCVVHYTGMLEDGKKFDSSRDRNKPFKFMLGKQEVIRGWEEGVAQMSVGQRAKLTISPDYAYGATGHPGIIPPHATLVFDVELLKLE
row,SMILES,Kd
1,CC(=O)N1CCn2c3c(c(=O)c4cc(C)ccc42)CCC31 (stereo unspecified),> 4 mM (inactive)
2,CC(C)=CC1C(CO)C1(C)C (stereo unspecified),> 4 mM (inactive)
3,O=C(Nc1cccc(Cl)c1)c1cnn2cccnc12,> 4 mM (inactive)
4,O=C1CN(C(=O)c2ccccc2F)c2ccccc2N1,> 4 mM (inactive)
5,Cc1c(C(=O)Nc2ccncc2)oc2c1C(=O)CC(C)(C)C2,> 4 mM (inactive)
6,CCN(CC)C(=O)c1n[nH]c(=O)c2ccccc12,> 4 mM (inactive)
7,CC12CCC(O)CC1CCC1C2[C@H](O)CC2(C)C(C3=CC(=O)OC3)CCC12O (stereo partly specified),> 4 mM (inactive)
8,Cc1ccccc1NC(=O)C1CC(=O)N=C(N)S1 (stereo unspecified),> 4 mM (inactive)
9,CNC(=S)NCCN1CCOCC1,> 4 mM (inactive)
10,C[C@@H]1O[C@@H](O[C@H]2CC[C@]3(C=O)C4CC[C@]5(C)[C@@H](C6=CC(=O)OC6)CC[C@]5(O)C4CC[C@]3(O)C2)[C@H](O)[C@H](O)[C@H]1O (stereo partly specified),> 4 mM (inactive)
11,Nc1ncnc2c1ncn2[C@@H]1O[C@H](CO)[C@@H](O)[C@H]1O,> 4 mM (inactive)
12,O=C1CCC(=O)N1c1ccc(F)cc1,> 4 mM (inactive)
13,O=C(O)c1cncc(-c2cccs2)c1,> 4 mM (inactive)
14,CC(=O)Nc1ccc(C(=O)NC2=NCCS2)cc1,> 4 mM (inactive)
15,CSc1nc2nc(C)cc(=O)n2[nH]1,> 4 mM (inactive)
16,CNC(=S)Nc1ccc(OC)cc1C,> 4 mM (inactive)
17,Cc1n[nH]c(C)c1CC(=O)O,> 4 mM (inactive)
18,CCCNC(=O)CSc1ncccc1C(=O)O,> 4 mM (inactive)
19,O=C(Nc1ncccn1)c1cccc(F)c1,> 4 mM (inactive)
20,COc1cc(OC)c2ccc(=O)oc2c1,> 4 mM (inactive)
21,Cc1nnc(SCc2ccccc2)[nH]c1=O,> 4 mM (inactive)
22,NC(=O)C1CCN(C(=O)c2ccccc2F)CC1,> 4 mM (inactive)
23,CC(=O)Oc1cc(-c2coc3cc(OC(C)=O)c(OC(C)=O)c(OC(C)=O)c3c2=O)cc(OC(C)=O)c1OC(C)=O,> 4 mM (inactive)

row,SMILES,Kd
1,O=S(=O)(Nc1ccc2c(c1)OCCO2)c1cccs1,> 4 mM (inactive)
2,CS(=O)(=O)Cc1ccccc1,> 4 mM (inactive)
3,Nc1ccccc1C(=O)N1CCNC(=O)C1,> 4 mM (inactive)
4,CNC(=O)C1COc2ccccc2O1 (stereo unspecified),> 4 mM (inactive)
5,CC(=O)Nc1cc(S(=O)(=O)N(C)C)ccc1Cl,> 4 mM (inactive)
6,COC(=O)CCC(C)[C@H]1CCC2C3C(C[C@H](O)[C@@]21C)[C@@]1(C)CC[C@@H](O)C[C@H]1C[C@H]3O (stereo partly specified),> 4 mM (inactive)
7,O=c1c2ccccc2nc2n1CCC2O (stereo unspecified),> 4 mM (inactive)
8,CC(=O)OCc1cc(=O)n(C)c(=O)n1C,> 4 mM (inactive)
9,Nc1ncnc(Cl)c1[N+](=O)[O-],> 4 mM (inactive)
10,NC(=O)Cc1nc(-c2ccc(F)cc2)cs1,> 4 mM (inactive)
11,O=c1c(-c2ccc(O)cc2)coc2cc(O)ccc12,> 4 mM (inactive)
12,O=C(O)CCC(=O)c1c[nH]c2ccccc12,> 4 mM (inactive)
13,CCc1ccc2oc(-c3cc(N)cc(C)c3O)nc2c1,> 4 mM (inactive)
14,Nc1ccccc1N1CCOCC1,> 4 mM (inactive)
15,Cc1ccc(S(C)(=O)=O)s1,> 4 mM (inactive)
16,Cn1c(=O)n(CC(=O)N2CCOCC2)c2ccccc21,> 4 mM (inactive)
17,COc1cc([C@@H]2c3cc4c(cc3[C@H](OC(C)=O)[C@H]3COC(=O)[C@@H]23)OCO4)cc(OC)c1OC,> 4 mM (inactive)
18,Cc1cc(N)n(-c2ccccc2)n1,> 4 mM (inactive)
19,COc1ccc2cc1Oc1ccc(cc1)C[C@H]1c3c(cc4c(c3Oc3cc5c(cc3OC)CCN(C)[C@@H]5C2)OCO4)CCN1C,> 4 mM (inactive)
20,CCOC(=O)C1C(=O)C2CCN1CC2 (stereo unspecified),> 4 mM (inactive)
21,CC1O[C@@H](Oc2c(-c3ccc(O)c(O)c3)oc3cc(O)cc(O)c3c2=O)[C@H](O)[C@H](O)[C@H]1O (stereo partly specified),> 4 mM (inactive)
22,Cc1c(F)cccc1NS(=O)(=O)c1ccccc1C#N,> 4 mM (inactive)
23,NC12CC3CC(C1)CC(CC(=O)O)(C3)C2,> 4 mM (inactive)

row,SMILES,Kd
1,Nc1cccc(CC(=S)N2CCOCC2)c1,> 4 mM (inactive)
2,Nc1ccc(-c2cn3c(n2)SCC3)cc1,> 4 mM (inactive)
3,COc1cc2c(cc1OC)C1Cc3ccc(OC)c(OC)c3CN1CC2 (stereo unspecified),> 4 mM (inactive)
4,CNC(=O)C(=O)Nc1ccc(F)cc1,> 4 mM (inactive)
5,CC(C)NS(=O)(=O)c1ccc(N)cc1,> 4 mM (inactive)
6,O=C(O)c1ccc2nsnc2c1,> 4 mM (inactive)
7,O=S(=O)(Nc1ccc(Br)cc1)N1CCOCC1,inactive
8,CC1=C2C(O)C(=O)OC3CC4C(C)(C)C(=O)C=C[C@]4(C)C(CC1)[C@]23C (stereo partly specified),> 4 mM (inactive)
9,Cc1nc2ccc(C(=O)O)cc2[nH]1,> 4 mM (inactive)
10,C=C1C2CC[C@H]3[C@]4(C)C[C@H](OC5OC(CO)C(OS(=O)(=O)O)C(OS(=O)(=O)O)C5OC(=O)CC(C)C)C[C@@H](C(=O)O)[C@H]4CC[C@]3(C2)[C@H]1O (stereo partly specified),> 4 mM (inactive)
11,COC(=O)[C@@]1(C)CCC[C@]2(C)c3ccc(O)c(C(C)C)c3CCC12 (stereo partly specified),> 4 mM (inactive)
12,COc1ccc2c(c1OC)C(=O)OC2[C@H]1c2c(cc3c(c2OC)OCO3)CCN1C (stereo partly specified),> 4 mM (inactive)
13,O=C(NCc1ccco1)c1ccc(Br)s1,> 4 mM (inactive)
14,Cc1cc(C)nc(/N=C(\N)N2CCc3ccccc32)n1,> 4 mM (inactive)
15,CCc1cc2c(SCC(=O)O)ncnc2s1,> 4 mM (inactive)
16,CN(C)c1nc(N2CCOCC2)nc(N2CCOCC2)n1,> 4 mM (inactive)
17,Nc1ccc(S(=O)(=O)N2CCOCC2)cc1,> 4 mM (inactive)
18,CC(=O)c1c(C)nc2ccccc2c1N,> 4 mM (inactive)
19,CN(C(=O)NC1CCS(=O)(=O)C1)C1CCCCC1 (stereo unspecified),> 4 mM (inactive)
20,CNC(=O)c1cc(S(=O)(=O)N(C)C)ccc1Cl,> 4 mM (inactive)
21,COc1c2ccccc2nc2occc12,> 4 mM (inactive)
22,Cc1ccc(N2C(=O)C3C4C=CC(O4)C3C2=O)cc1 (stereo unspecified),> 4 mM (inactive)
23,Nc1cccc(OC(F)(F)F)c1,> 4 mM (inactive)

row,SMILES,Kd
1,O=C(Nc1ccc2c(c1)OCO2)c1cccc(F)c1,> 4 mM (inactive)
2,CC(C)(C)c1cc(NC(=O)c2cccnc2)no1,> 4 mM (inactive)
3,O=C(Nc1cnccn1)c1ccncc1,> 4 mM (inactive)
4,c1ccc2c(c1)CN1CCCC1=N2,> 4 mM (inactive)
5,COC(=O)CSc1nc(N)cc(=O)[nH]1,> 4 mM (inactive)
6,C=C(C)C1Cc2c(ccc(C(=O)O)c2O)O1 (stereo unspecified),> 4 mM (inactive)
7,NC12CC3CC(C1)CC(C(=O)O)(C3)C2,> 4 mM (inactive)
8,O=c1ccn([C@@H]2O[C@H](COP(=O)(O)OP(=O)(O)OP(=O)(O)O)[C@@H](O)[C@H]2O)c(=O)[nH]1,> 4 mM (inactive)
9,Fc1cccc(Cl)c1CN1CCNCC1,> 4 mM (inactive)
10,COc1cc(O)c2c(c1)C(=O)c1cc(C)cc(O)c1C2=O,> 4 mM (inactive)
11,Cc1nnc(-n2cnc3ccccc32)c2ccccc12,> 4 mM (inactive)
12,Cn1nc(C(=O)Nc2cccnc2)c2ccccc2c1=O,> 4 mM (inactive)
13,CCOC(=O)c1c(C)[nH]c2ccc(O)cc12,> 4 mM (inactive)
14,O=C(CCc1n[nH]c(=O)[nH]c1=O)NCc1ccccc1,> 4 mM (inactive)
15,O=C(c1ccc(Cl)s1)N1CCOCC1,> 4 mM (inactive)
16,NC(=O)c1cccc2c1OCCO2,> 4 mM (inactive)
17,CCN1CCC(NC2CCC(O)CC2)CC1 (stereo unspecified),> 4 mM (inactive)
18,O=c1ccn(Cc2ccccc2)c(=O)n1Cc1ccccc1,> 4 mM (inactive)
19,COc1ccc(-c2cc(=O)c3c(O)c(OC)c(O[C@H]4O[C@H](CO[C@@H]5O[C@@H](C)[C@H](O)[C@@H](O)[C@H]5O)[C@@H](O)[C@H](O)[C@H]4O)cc3o2)cc1,> 4 mM (inactive)
20,Cc1nc2nc(COc3ccccc3)nn2c(C)c1Cl,> 4 mM (inactive)
21,O=C(COc1ccc2c(c1)OCO2)N1CCOCC1,inactive
22,CNC(=O)c1cc2cccc(OC)c2oc1=O,> 4 mM (inactive)
23,C[C@@H]1O[C@@H](O[C@H]2[C@@H](Oc3cc(O)c4c(c3)O[C@H](c3ccc(O)cc3)CC4=O)O[C@H](CO)[C@@H](O)[C@@H]2O)[C@H](O)[C@H](O)[C@H]1O,> 4 mM (inactive)

row,SMILES,Kd
1,CCNCC(O)c1ccc([N+](=O)[O-])cc1 (stereo unspecified),> 4 mM (inactive)
2,Cc1noc(C)c1C(=O)N1CCC2(CC1)OCCO2,> 4 mM (inactive)
3,O=C(Nn1cnnc1)c1ccccc1-c1ccccc1,> 4 mM (inactive)
4,Cc1noc(C)c1C(=O)NC1=NCCS1,> 4 mM (inactive)
5,Cn1c(=O)[nH]c(=O)c2c1ncn2CCN1CCCCC1,> 4 mM (inactive)
6,CC(=O)Nc1cc(O)cc(O)c1,> 4 mM (inactive)
7,O=C(CSc1ncn[nH]1)c1ccccc1,> 4 mM (inactive)
8,Cc1ccc(C2NS(=O)(=O)N=C2N)cc1 (stereo unspecified),> 4 mM (inactive)
9,O=C(Nc1ccon1)c1csc2ccccc12,> 4 mM (inactive)
10,Cc1c(C(=O)OC(C)C)[nH]c2c1C(=O)CCC2,> 4 mM (inactive)
11,COc1cc2c(cc1O)CC1c3c(cc(O)c(OC)c3-2)CCN1C (stereo unspecified),> 4 mM (inactive)
12,Cc1nn(C)c(Cl)c1C(O)c1c(C)nn(C)c1Cl,> 4 mM (inactive)
13,Cc1cc(C(=O)O)n[nH]1,> 4 mM (inactive)
14,C[C@H]1O[C@@H](O[C@H]2[C@@H](O)C[C@H](O[C@H]3[C@@H](O)C[C@H](O[C@H]4CC[C@]5(C)C6C[C@@H](O)[C@]7(C)[C@@H](C8=CC(=O)OC8)CC[C@]7(O)C6CC[C@@H]5C4)O[C@@H]3C)O[C@@H]2C)C[C@H](O)[C@@H]1O (stereo partly specified),> 4 mM (inactive)
15,O=C(c1ccccc1)N1CCOCC1,> 4 mM (inactive)
16,O=C(NC1CCS(=O)(=O)C1)C1CCCCC1 (stereo unspecified),> 4 mM (inactive)
17,Cc1nn(-c2ccccc2)nc1C(=O)O,> 4 mM (inactive)
18,CC(C)c1ccc(SCC(=O)N2CCOCC2C(=O)OCCCc2cccnc2)cc1 (stereo unspecified),0.0056 mM
19,NC(=O)c1ccsc1NC(=O)c1ccccc1[N+](=O)[O-],> 4 mM (inactive)
